≈ marks a conversion by molar mass, not a printed value.
Assays:
Assay type in all cases: functional
[1] = test system: Staphylococcus epidermidis; assay: Enhancement of biofilm formation Staphylococcus epidermidis SW029 expressing icaA gene at subinhibitory concentration by microtiter plate assay; design: scale not given: the % may be the effect or the level left
[2] = test system: Staphylococcus epidermidis; assay: Enhancement of biofilm formation Staphylococcus epidermidis SW032 expressing icaA gene at subinhibitory concentration by microtiter plate assay; design: scale not given: the % may be the effect or the level left
[3] = test system: Staphylococcus epidermidis; assay: Enhancement of biofilm formation Staphylococcus epidermidis SW045 expressing icaA gene at subinhibitory concentration by microtiter plate assay; design: scale not given: the % may be the effect or the level left
[4] = test system: Staphylococcus epidermidis; assay: Enhancement of biofilm formation Staphylococcus epidermidis SW058 expressing icaA gene at subinhibitory concentration by microtiter plate assay; design: scale not given: the % may be the effect or the level left
[5] = test system: Staphylococcus epidermidis; assay: Enhancement of biofilm formation Staphylococcus epidermidis SW061 expressing icaA gene at subinhibitory concentration by microtiter plate assay; design: scale not given: the % may be the effect or the level left
[6] = test system: Staphylococcus epidermidis; assay: Enhancement of biofilm formation Staphylococcus epidermidis SW067 expressing icaA gene at subinhibitory concentration by microtiter plate assay; design: scale not given: the % may be the effect or the level left
[7] = test system: Staphylococcus epidermidis; assay: Enhancement of biofilm formation Staphylococcus epidermidis SW085 expressing icaA gene at subinhibitory concentration by microtiter plate assay; design: scale not given: the % may be the effect or the level left
[8] = test system: Staphylococcus epidermidis; assay: Enhancement of biofilm formation Staphylococcus epidermidis SW098 expressing icaA gene at subinhibitory concentration by microtiter plate assay; design: scale not given: the % may be the effect or the level left
[9] = test system: Staphylococcus epidermidis; assay: Enhancement of biofilm formation Staphylococcus epidermidis SW104 expressing icaA gene at subinhibitory concentration by microtiter plate assay; design: scale not given: the % may be the effect or the level left
[10] = test system: Staphylococcus epidermidis; assay: Enhancement of biofilm formation Staphylococcus epidermidis SW126 expressing icaA gene at subinhibitory concentration by microtiter plate assay; design: scale not given: the % may be the effect or the level left
[11] = test system: Staphylococcus epidermidis; assay: Enhancement of biofilm formation Staphylococcus epidermidis SW015 at subinhibitory concentration by microtiter plate assay; design: scale not given: the % may be the effect or the level left
[12] = test system: Staphylococcus epidermidis; assay: Enhancement of biofilm formation Staphylococcus epidermidis SW021 at subinhibitory concentration by microtiter plate assay; design: scale not given: the % may be the effect or the level left
[13] = test system: Staphylococcus epidermidis; assay: Enhancement of biofilm formation Staphylococcus epidermidis SW036 at subinhibitory concentration by microtiter plate assay; design: scale not given: the % may be the effect or the level left
[14] = test system: Staphylococcus epidermidis; assay: Enhancement of biofilm formation Staphylococcus epidermidis SW070 at subinhibitory concentration by microtiter plate assay; design: scale not given: the % may be the effect or the level left
[15] = test system: Staphylococcus epidermidis; assay: Enhancement of biofilm formation Staphylococcus epidermidis SW071 at subinhibitory concentration by microtiter plate assay; design: scale not given: the % may be the effect or the level left
[16] = test system: Staphylococcus epidermidis; assay: Enhancement of biofilm formation Staphylococcus epidermidis SW082 at subinhibitory concentration by microtiter plate assay; design: scale not given: the % may be the effect or the level left
[17] = test system: Staphylococcus epidermidis; assay: Enhancement of biofilm formation Staphylococcus epidermidis SW088 at subinhibitory concentration by microtiter plate assay; design: scale not given: the % may be the effect or the level left
[18] = test system: Staphylococcus epidermidis; assay: Enhancement of biofilm formation Staphylococcus epidermidis SW099 at subinhibitory concentration by microtiter plate assay; design: scale not given: the % may be the effect or the level left
[19] = test system: Staphylococcus epidermidis; assay: Enhancement of biofilm formation Staphylococcus epidermidis SW115 at subinhibitory concentration by microtiter plate assay; design: scale not given: the % may be the effect or the level left
[20] = test system: Staphylococcus epidermidis; assay: Enhancement of biofilm formation Staphylococcus epidermidis SW120 at subinhibitory concentration by microtiter plate assay; design: scale not given: the % may be the effect or the level left
[21] = test system: Staphylococcus epidermidis; assay: Antimicrobial activity against Staphylococcus epidermidis SW029 expressing icaA gene
[22] = test system: Staphylococcus epidermidis; assay: Antimicrobial activity against Staphylococcus epidermidis SW036
[23] = test system: Staphylococcus epidermidis; assay: Antimicrobial activity against Staphylococcus epidermidis SW027 expressing icaA gene assessed as enhancement of biofilm formation at subinhibitory concentration by microtiter plate assay; design: scale not given: the % may be the effect or the level left
[24] = test system: Staphylococcus epidermidis; assay: Enhancement of biofilm formation Staphylococcus epidermidis ATCC 35984 expressing icaA gene at subinhibitory concentration by microtiter plate assay; design: scale not given: the % may be the effect or the level left

With `CC[C@H]1OC(=O)[C@H](C)[C@@H](O[C@H]2C[C@@](C)(OC)[C@@H](O)[C@H](C)O2)[C@H](C)[C@@H](O[C@@H]2O[C@H](C)C[C@H](N(C)C)[C@H]2O)[C@](C)(OC)C[C@@H](C)C(=O)[C@H](C)[C@@H](O)[C@]1(C)O` [CLARITHROMYCIN] the Activity [1] was 146.4%, the Activity [2] was 71.8% and the Activity [3] was 32.2%. It also gave an Activity [4] of 54.9%, an Activity [5] of 46.3% and an Activity [6] of 140.2%. It also gave an Activity [7] of 275.8%, an Activity [8] of 112.8% and an Activity [9] of 51.5%. It also gave an Activity [10] of 50.3%, an Activity [11] of 78.6% and an Activity [12] of 54.6%. The Activity [13] was 292%, the Activity [14] was 155.6% and the Activity [15] was 147.2%. It also gave an Activity [16] of 62.8%, an Activity [17] of 201.5% and an Activity [18] of 38.7%. The Activity [19] was 164%, the Activity [20] was 50.6% and the MIC [21] was > 128 µg/mL. For the same compound, the MIC [22] was 16 µg/mL (≈ 21.4 µM), the Activity [23] was 62.3% and the Activity [24] was -3.9%.

In the case of `CC[C@H]1OC(=O)[C@H](C)[C@@H](O[C@H]2C[C@@](C)(OC)[C@@H](O)[C@H](C)O2)[C@H](C)[C@@H](O[C@@H]2O[C@H](C)C[C@H](N(C)C)[C@H]2O)[C@](C)(O)C[C@@H](C)CN(C)[C@H](C)[C@@H](O)[C@]1(C)O` [AZITHROMYCIN], the Activity [1] is reported as 157.9%, the Activity [2] is reported as 71.8% and the Activity [3] is reported as 33.4%. For the same compound, the Activity [4] was 37.6%, the Activity [5] was 58.4% and the Activity [6] was 128.8%. The Activity [7] was 298.3%, the Activity [8] was 104% and the Activity [9] was 48.1%. It also gave an Activity [10] of 56.4%, an Activity [11] of 57.3% and an Activity [12] of 39.8%. It also gave an Activity [13] of 289.2%, an Activity [14] of 92.3% and an Activity [15] of 277.8%. The Activity [16] was 59.8%, the Activity [17] was 117.2% and the Activity [18] was 47%. The Activity [19] was 184.3%, the Activity [20] was 75.8% and the MIC [21] was > 128 µg/mL. The MIC [22] was > 128 µg/mL, the Activity [23] was 49.1% and the Activity [24] was 2.5%.

From ChEMBL document CHEMBL1671687, “Enhancement of biofilm formation by subinhibitory concentrations of macrolides in icaADBC-positive and -negative clinical isolates of Staphylococcus epidermidis” (2010)
